Legend:
[1] = test system: bicistronic HCV replicon (replicon RNA, GenBank Accession No. AJ242654); assay: HCV Replicon Assay; format: cell-based; settings: Hepatitis C virus, 72 h, read-out: Replicon IC50

Row | Structure (SMILES) | IC50 [1] | melting point
1 | CCS(=O)(=O)Nc1ccc(-c2c(C#N)c3ccc(OCC(F)(F)F)cc3n2CC2CC2)nc1 [compound 284, N-{6-[3-cyano-1-(cyclopropylmethyl)-6-(2,2,2-trifluoroethoxy)-1H-indol-2-yl]pyridin-3-yl}ethanesulfonamide] | 500 to 2000 nM | 190 to 195 °C
2 | Cc1cc2c(cc1F)c(C(=O)O)c(-c1ccc(S(=O)(=O)NC3(C(F)(F)F)CC3)cn1)n2C1CCCCC1 [compound 835, 1-cyclohexyl-5-fluoro-6-methyl-2-(5-{[1-(trifluoromethyl)cyclopropyl]sulfamoyl}pyridin-2-yl)-1H-indole-3-carboxylic acid] | < 500 nM | 205 to 213 °C
3 | Cc1ccc2c(C#N)c(-c3ccc(NS(=O)(=O)C4CC4)cn3)n(C3CCCC3)c2c1 [compound 296, N-[6-(3-cyano-1-cyclopentyl-6-methyl-1H-indol-2-yl)pyridin-3-yl]cyclopropanesulfonamide] | 2000 to 5000 nM | 241 to 245 °C
4 | Cc1ccc2c(C#N)c(-c3ncc(S(=O)(=O)N[C@@H](C)C(F)(F)F)cn3)n(CC3CC3)c2c1 [compound 402, 2-[3-cyano-1-(cyclopropylmethyl)-6-methyl-1H-indol-2-yl]-N-[(2S)-1,1,1-trifluoropropan-2-yl]pyrimidine-5-sulfonamide] | < 500 nM | 259 to 260 °C
5 | Cc1ccc2c(C#N)c(-c3ccc(S(=O)(=O)NC4(C(F)(F)F)CCC4)cn3)n(C3CCC3)c2c1 [compound 587, 6-(3-cyano-1-cyclobutyl-6-methyl-1H-indol-2-yl)-N-[1-(trifluoromethyl)cyclobutyl]pyridine-3-sulfonamide] | < 500 nM | 228 to 232 °C
6 | Cc1ccc2c(C#N)c(-c3ccc(S(=O)(=O)NC4(C(F)(F)F)CC4)cn3)n(CC3CC3)c2c1 [compound 255, 6-[3-cyano-1-(cyclopropylmethyl)-6-methyl-1H-indol-2-yl]-N-[1-(trifluoromethyl)cyclopropyl]pyridine-3-sulfonamide] | < 500 nM | 191 to 195 °C
7 | Cc1ccc2c(c1)c(C(N)=O)c(-c1ccc(S(=O)(=O)N[C@@H](C)C(F)(F)F)cn1)n2-c1cnccn1 [compound 916, 5-methyl-1-(pyrazin-2-yl)-2-(5-{[(2S)-1,1,1-trifluoropropan-2-yl]sulfamoyl}pyridin-2-yl)-1H-indole-3-carboxamide] | < 500 nM | 240 to 245 °C
8 | C[C@H](NS(=O)(=O)c1cnc(-c2c(C#N)c3cc(F)ccc3n2C2CCCC2)nc1)C(F)(F)F [compound 547, 2-(3-cyano-1-cyclopentyl-5-fluoro-1H-indol-2-yl)-N-[(2S)-1,1,1-trifluoropropan-2-yl]pyrimidine-5-sulfonamide] | < 500 nM | 214 to 218 °C
9 | Cc1ccc2cc(-c3ccc(S(=O)(=O)NC(CF)CF)cn3)n(C3CCC3)c2c1 [compound 511, 6-(1-cyclobutyl-6-methyl-1H-indol-2-yl)-N-(1,3-difluoropropan-2-yl)pyridine-3-sulfonamide] | < 500 nM | 137 to 139 °C
10 | C[C@@H](NS(=O)(=O)c1ccc(-c2c(C#N)c3ccc(C4CC4)cc3n2C2CCCC2)nc1)C(F)(F)F [compound 211, 6-(3-cyano-1-cyclopentyl-6-cyclopropyl-1H-indol-2-yl)-N-[(2R)-1,1,1-trifluoropropan-2-yl]pyridine-3-sulfonamide] | < 500 nM | 178 to 181 °C
11 | C[C@H](NS(=O)(=O)c1ccc(-c2c(C#N)c3ccc(OC(F)F)cc3n2C2CCCC2)nc1)C1CC1 [compound 174, 6-[3-cyano-1-cyclopentyl-6-(difluoromethoxy)-1H-indol-2-yl]-N-[(1S)-1-cyclopropylethyl]pyridine-3-sulfonamide] | < 500 nM | 176 to 182 °C
12 | N#Cc1c(-c2ncc(S(=O)(=O)NC(CF)CF)cn2)n(C2CCC2)c2ccc(Cl)cc12 [compound 175, 2-(5-chloro-3-cyano-1-cyclobutyl-1H-indol-2-yl)-N-(1,3-difluoropropan-2-yl)pyrimidine-5-sulfonamide] | < 500 nM | 210 to 212 °C
13 | Cc1cc2c(cc1Cl)c(C(N)=O)c(-c1ccc(S(=O)(=O)N[C@H](C)C(F)(F)F)cn1)n2C1CCC1 [compound 735, 5-chloro-1-cyclobutyl-6-methyl-2-(5-{[(2R)-1,1,1-trifluoropropan-2-yl]sulfamoyl}pyridin-2-yl)-1H-indole-3-carboxamide] | < 500 nM | 208 to 210 °C
14 | C[C@@H](NS(=O)(=O)c1ccc(-c2c(C#N)c3cc(F)ccc3n2C2CCCCC2)nc1)C(F)(F)F [compound 261, 6-(3-cyano-1-cyclohexyl-5-fluoro-1H-indol-2-yl)-N-[(2R)-1,1,1-trifluoropropan-2-yl]pyridine-3-sulfonamide] | < 500 nM | 208 to 210 °C
15 | Cc1cc2c(C#N)c(-c3ccc(S(=O)(=O)N[C@@H](C)C(F)(F)F)cn3)n(-c3ncc(F)cn3)c2cc1F [compound 949, 6-[3-cyano-6-fluoro-1-(5-fluoropyrimidin-2-yl)-5-methyl-1H-indol-2-yl]-N-[(2S)-1,1,1-trifluoropropan-2-yl]pyridine-3-sulfonamide] | < 500 nM | 226 to 231 °C
16 | CC(C)(C)S(=O)(=O)Nc1ccc(-c2c(C(N)=O)c3cc(F)c(OCF)cc3n2C2CCCCC2)cn1 [compound 1102, 2-{6-[(tert-butylsulfonyl)amino]pyridin-3-yl}-1-cyclohexyl-5-fluoro-6-(fluoromethoxy)-1H-indole-3-carboxamide] | < 500 nM | 274 to 276 °C
17 | Cc1ccc2c(c1)c(C#N)c(-c1ncc(S(=O)(=O)N[C@@H](C)C3CC3)cn1)n2C1CCC1 [compound 545, 2-(3-cyano-1-cyclobutyl-5-methyl-1H-indol-2-yl)-N-[(1S)-1-cyclopropylethyl]pyrimidine-5-sulfonamide] | < 500 nM | 168 to 171 °C
18 | CCc1cc2c(cc1F)c(C(N)=O)c(-c1ccc(S(=O)(=O)N[C@@H](C)C(F)(F)F)cn1)n2-c1ccc(Cl)cc1 [compound 1020, 1-(4-chlorophenyl)-6-ethyl-5-fluoro-2-(5-{[(2S)-1,1,1-trifluoropropan-2-yl]sulfamoyl}pyridin-2-yl)-1H-indole-3-carboxamide] | < 500 nM | 240 to 247 °C
19 | Cc1cc2c(cc1F)c(C#N)c(-c1ccc(S(=O)(=O)N[C@@H](C)C(F)(F)F)cn1)n2-c1cscn1 [compound 960, 6-[3-cyano-5-fluoro-6-methyl-1-(1,3-thiazol-4-yl)-1H-indol-2-yl]-N-[(2S)-1,1,1-trifluoropropan-2-yl]pyridine-3-sulfonamide] | < 500 nM | 184 to 189 °C
20 | N#Cc1c(-c2ccc(S(=O)(=O)NC3(C(F)(F)F)CC3)cn2)n(-c2ncccn2)c2cc(OC(F)F)ccc12 [compound 690, 6-[3-cyano-6-(difluoromethoxy)-1-(pyrimidin-2-yl)-1H-indol-2-yl]-N-[1-(trifluoromethyl)cyclopropyl]pyridine-3-sulfonamide] | 500 to 2000 nM | 170 to 174 °C
21 | N#Cc1c(-c2ccc(S(=O)(=O)NC3CC(F)(F)C3)cn2)n(C2CCC2)c2cc(Cl)ccc12 [compound 244, 6-(6-chloro-3-cyano-1-cyclobutyl-1H-indol-2-yl)-N-(3,3-difluorocyclobutyl)pyridine-3-sulfonamide] | 2000 to 5000 nM | 135 to 138 °C
22 | CS(=O)(=O)Nc1ccc(-c2c(C#N)c3ccc(C4CC4)cc3n2C2CCC2)cn1 [compound 287, N-[5-(3-cyano-1-cyclobutyl-6-cyclopropyl-1H-indol-2-yl)pyridin-2-yl]methanesulfonamide] | 500 to 2000 nM | 239 to 241 °C
23 | Cc1cc2c(C#N)c(-c3ccc(S(=O)(=O)NC(CF)CF)cn3)n(C3CCC3)c2cc1F [compound 493, 6-(3-cyano-1-cyclobutyl-6-fluoro-5-methyl-1H-indol-2-yl)-N-(1,3-difluoropropan-2-yl)pyridine-3-sulfonamide] | < 500 nM | 209 to 213 °C
24 | N#Cc1ccc2c(C#N)c(-c3ccc(S(=O)(=O)NC(CF)CF)cn3)n(C3CCC3)c2c1 [compound 465, 6-(3,6-dicyano-1-cyclobutyl-1H-indol-2-yl)-N-(1,3-difluoropropan-2-yl)pyridine-3-sulfonamide] | < 500 nM | 203 to 204 °C
25 | CCc1cc2c(cc1F)c(C#N)c(-c1ccc(S(=O)(=O)NC(C)(C)C)cn1)n2-c1ncccc1F [compound 900, N-tert-butyl-6-[3-cyano-6-ethyl-5-fluoro-1-(3-fluoropyridin-2-yl)-1H-indol-2-yl]pyridine-3-sulfonamide] | 500 to 2000 nM | 200 to 203 °C
26 | CC(C)n1c(-c2ccc(S(=O)(=O)NC(CF)CF)cn2)c(C#N)c2ccc(C3CC3)cc21 [compound 83, 6-[3-cyano-6-cyclopropyl-1-(propan-2-yl)-1H-indol-2-yl]-N-(1,3-difluoropropan-2-yl)pyridine-3-sulfonamide] | < 500 nM | 184 to 190 °C
27 | Cc1ccc2c(C#N)c(-c3ccc(S(=O)(=O)N[C@H](C)C(F)(F)F)cn3)n(C3CCCC3)c2c1 [compound 214, 6-(3-cyano-1-cyclopentyl-6-methyl-1H-indol-2-yl)-N-[(2R)-1,1,1-trifluoropropan-2-yl]pyridine-3-sulfonamide] | < 500 nM | 176 to 182 °C
28 | CCc1cc2c(cc1F)c(C#N)c(-c1ccc(S(=O)(=O)N[C@@H](C)C(F)(F)F)cn1)n2C1CCCC1 [compound 633, 6-(3-cyano-1-cyclopentyl-6-ethyl-5-fluoro-1H-indol-2-yl)-N-[(2S)-1,1,1-trifluoropropan-2-yl]pyridine-3-sulfonamide] | < 500 nM | 201 to 202 °C
29 | C[C@H](NS(=O)(=O)c1cnc(-c2c(C(N)=O)c3ccc(OC(F)F)cc3n2C2CCCCC2)nc1)C(F)(F)F [compound 746, 1-cyclohexyl-6-(difluoromethoxy)-2-(5-{[(2S)-1,1,1-trifluoropropan-2-yl]sulfamoyl}pyrimidin-2-yl)-1H-indole-3-carboxamide] | < 500 nM | 217 to 219 °C
